These results are taken from patent US20260306642A1, “STAT DEGRADERS AND USES THEREOF” (Recludix Pharma, Inc., priority 2023, published 2026).

Each structure is given as a SMILES string.

Test [1] has as its target T1, pSTAT6 (Homo sapiens, UniProt P42226).
T1 sequence (P42226 1-847): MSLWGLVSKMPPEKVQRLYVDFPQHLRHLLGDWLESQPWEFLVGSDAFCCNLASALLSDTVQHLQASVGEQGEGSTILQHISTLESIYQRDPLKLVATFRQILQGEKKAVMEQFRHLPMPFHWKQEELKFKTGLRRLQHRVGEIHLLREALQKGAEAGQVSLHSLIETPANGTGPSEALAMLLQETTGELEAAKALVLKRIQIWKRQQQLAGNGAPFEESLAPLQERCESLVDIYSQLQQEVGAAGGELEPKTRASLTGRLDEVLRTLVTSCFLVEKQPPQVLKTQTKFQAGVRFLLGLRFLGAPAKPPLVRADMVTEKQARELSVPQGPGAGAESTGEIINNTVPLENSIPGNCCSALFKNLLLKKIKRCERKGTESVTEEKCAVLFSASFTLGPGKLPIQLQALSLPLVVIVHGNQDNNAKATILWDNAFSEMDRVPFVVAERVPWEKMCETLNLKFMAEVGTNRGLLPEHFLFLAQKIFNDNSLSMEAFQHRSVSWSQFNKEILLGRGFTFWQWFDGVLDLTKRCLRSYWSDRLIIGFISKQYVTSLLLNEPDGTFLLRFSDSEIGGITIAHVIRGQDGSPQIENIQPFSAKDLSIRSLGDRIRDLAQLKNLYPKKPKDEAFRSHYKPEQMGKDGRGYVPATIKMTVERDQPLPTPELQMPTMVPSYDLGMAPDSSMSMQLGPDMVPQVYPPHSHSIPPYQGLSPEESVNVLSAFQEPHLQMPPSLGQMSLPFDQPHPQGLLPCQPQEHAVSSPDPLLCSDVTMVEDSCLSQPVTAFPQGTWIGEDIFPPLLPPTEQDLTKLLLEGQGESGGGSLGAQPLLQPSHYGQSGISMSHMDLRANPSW
The experiment in a line: MSD-pSTAT-PBMC Assay (pSTAT6, IL-4 stimulated). Type of test: cell-based. Particulars: compound 3 hrs, then 1 ng/mL IL-4 10 min, pY641-STAT6, read-out: pSTAT6 IC50. The text has this:
Cryopreserved Peripheral Blood Mononuclear Cells (PBMC) are from AllCells. Recombinant Human IL-4 and IL-6 are from Peprotech. Mouse monoclonal anti-STAT3 antibody, rabbit monoclonal anti-pY705-STAT3 antibody, rabbit monoclonal Anti-pY641-STAT6 antibody, and lysis buffer are from Cell Signaling Technology (CST). Mouse monoclonal anti-STAT6 antibody is from BioLegend. Assay plates, blocker, and anti-rabbit secondary antibody are from Meso Scale Discovery (MSD).
Cryopreserved PBMCs were thawed out and allowed to recover overnight in IMDM+10% heat-inactivated FBS prior to plating 50,000 (STAT3) or 25,000 (STAT6) cells per well in 96-well U-bottom tissue culture plates. Cells were treated with compound for 3 hrs, then stimulated with 10 ng/mL IL-6 (STAT3) or 1 ng/mL IL-4 (STAT6) for 10 min. Cells were then spun down and washed with ice-cold PBS prior to lysing the cell pellet with 1× lysis buffer (CST) with 1× HALT protease and phosphatase inhibitor cocktail (Thermo). Lysates were transferred to and incubated overnight at 4° C. with shaking in QuickPlex 96-well high bind assay plates (MSD) pre-coated overnight with 30 μL per well of […] mouse monoclonal anti-STAT3 antibody (STAT3) or 2 μg/mL mouse monoclonal anti-STAT6 antibody (STAT6) in 1× PBS, and pre-blocked for 1 hour with 3% Blocker-A (MSD). Captured protein in the assay plates were then washed and probed with 25 μL per well of […] rabbit monoclonal anti-pY705-STAT3 antibody (STAT3) or […] rabbit monoclonal Anti-pY641-STAT6 antibody (STAT6) in 1% Blocker-A for 1 hour at room temperature with shaking, then washed and probed with 25 ul per well of 1 ug/ml Sulfo-TAG Labeled Goat Anti-Rabbit Antibody (MSD) in 1% Blocker-A for 1 hour at room temperature with shaking. Assay plates were then washed and 150 μL of 1× Read Buffer-T (MSD) was added to each well prior to reading on an SQ120 MSD Plate Reader. Assay signal from each sample was subtracted by the signal from unstimulated control wells and normalized to DMSO control wells. IC50 values were calculated using Graph Pad Prism Dose-Response Nonlinear Regression with variable slope. For both pSTAT3 and pSTAT6 A=≤100 nM; B=>100-1000 nM; C=>1000-3000 nM; and D=>3 μM.

Test [2] addresses T2, STAT6 (Homo sapiens, UniProt P42226).
T2 construct: Recombinant STAT6 protein (STAT6(W123-T658))
T2 sequence (P42226 123-658): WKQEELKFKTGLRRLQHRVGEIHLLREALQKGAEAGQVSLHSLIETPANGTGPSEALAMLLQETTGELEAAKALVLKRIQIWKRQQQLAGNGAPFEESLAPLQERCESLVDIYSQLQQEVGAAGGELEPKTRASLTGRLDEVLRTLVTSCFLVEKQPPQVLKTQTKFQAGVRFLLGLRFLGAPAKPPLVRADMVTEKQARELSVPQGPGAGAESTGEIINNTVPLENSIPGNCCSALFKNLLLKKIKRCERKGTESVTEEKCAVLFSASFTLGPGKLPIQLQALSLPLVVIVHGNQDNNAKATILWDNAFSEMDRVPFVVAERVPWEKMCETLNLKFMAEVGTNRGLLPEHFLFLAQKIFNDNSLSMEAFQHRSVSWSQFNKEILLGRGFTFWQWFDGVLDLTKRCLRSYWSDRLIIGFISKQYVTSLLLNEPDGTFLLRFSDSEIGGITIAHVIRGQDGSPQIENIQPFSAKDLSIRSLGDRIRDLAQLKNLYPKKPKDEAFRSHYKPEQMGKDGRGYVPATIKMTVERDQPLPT
Briefly: STAT6 Fluorescence Polarization (FP) Assay. Type of test: binding. In outline:
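STAT6(W123-T658) at 250 nM with 2 nM 5-FAM-ApYKPFQDLI-NH2 probe in HEPES pH 7.4, 50 mM NaCl, EDTA, Tween 20, DTT, 1% DMSO. FP read after 45 min at room temperature; IC50 from nonlinear fit of mP versus log concentration.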

Test [3] has as its target T3, STAT3 (Homo sapiens, UniProt P40763).
T3 construct: Recombinant STAT3 protein (STAT3(G127-I722))
The experiment in a line: STAT3 Fluorescence Polarization (FP) Assay. The format is binding. In outline: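 Recombinant STAT3 (G127–I722, 25 nM) was mixed with 2 nM 5-FAM-GpYLPQTV-NH2 probe in HEPES pH 7.4 buffer with 1% DMSO and serially diluted compound. Fluorescence polarization was read after 45 min at room temperature. IC50 came from nonlinear regression of mP versus log concentration and was binned A (≤100 nM), B (>100–1000 nM), C (>1–10 μM) or D (>10 μM).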

T3 sequence (P40763 127-722): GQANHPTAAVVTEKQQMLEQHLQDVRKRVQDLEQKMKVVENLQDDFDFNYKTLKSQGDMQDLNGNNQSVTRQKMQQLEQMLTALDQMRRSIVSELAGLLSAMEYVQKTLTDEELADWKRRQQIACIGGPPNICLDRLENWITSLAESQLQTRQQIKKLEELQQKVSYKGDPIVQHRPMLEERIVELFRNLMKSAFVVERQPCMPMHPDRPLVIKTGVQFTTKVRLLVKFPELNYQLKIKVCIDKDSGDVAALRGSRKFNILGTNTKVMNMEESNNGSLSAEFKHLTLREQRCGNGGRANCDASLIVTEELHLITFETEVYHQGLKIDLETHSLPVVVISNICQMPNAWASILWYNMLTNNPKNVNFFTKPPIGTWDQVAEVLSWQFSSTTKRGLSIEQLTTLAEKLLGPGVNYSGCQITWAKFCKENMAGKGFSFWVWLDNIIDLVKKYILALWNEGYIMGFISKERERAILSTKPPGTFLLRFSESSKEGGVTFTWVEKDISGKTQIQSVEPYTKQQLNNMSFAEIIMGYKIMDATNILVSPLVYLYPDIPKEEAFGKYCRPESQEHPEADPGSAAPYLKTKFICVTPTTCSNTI

As to `N#CC1CN(C(=O)C2CCC3CCCCC(NC(=O)c4cc5cc(C(F)(F)P(=O)(O)O)ccc5s4)C(=O)N32)CC1c1cccc(OCCCCCC#Cc2cccc3c2CN(C2CCC(=O)NC2=O)C3=O)c1` [Compound 13, ((2-(((3S,6S,10aS)-3-((rel-3S,4R)-3-cyano-4-(3-((7-(2-(2,6-dioxopiperidin-3-yl)-1-oxoisoindolin-4-yl)hept-6-yn-1-yl)oxy)phenyl)pyrrolidine-1-carbonyl)-5-oxodecahydropyrrolo[1,2-a]azocin-6-yl)carbamoyl)benzo[b]thiophen-5-yl)difluoromethyl)phosphonic acid], the IC50 in test [1] is over 3000 nM; in test [2], under 300 nM; in test [3], 100 to 1000 nM.

Turning to `O=C1CCC(N2Cc3c(C#CCCCCCCn4ccc([C@@H]5CN(C(=O)[C@@H]6CC[C@@H]7CCCC[C@H](NC(=O)c8cc9cc(C(F)(F)P(=O)(O)O)ccc9s8)C(=O)N76)C6(CC6)C5)cc4=O)cccc3C2=O)C(=O)N1` (stereo partly drawn) [Compound 5, ((2-(((3S,6S,10aS)-3-((6R)-6-(1-(8-(2-(2,6-dioxopiperidin-3-yl)-1-oxoisoindolin-4-yl)oct-7-yn-1-yl)-2-oxo-1,2-dihydropyridin-4-yl)-4-azaspiro[2.4]heptane-4-carbonyl)-5 oxodecahydropyrrolo[1,2-a]azocin-6-yl)carbamoyl)benzo[b]thiophen-5-yl)difluoromethyl)phosphonic acid], the IC50 in test [1] lay in the range of 100 to 1000 nM; in test [2], 300 to 3000 nM; in test [3], 1000 to 10000 nM.

In the case of `N#C[C@@H]1CN(C(=O)[C@@H]2CC[C@@H]3CCCC[C@H](NC(=O)c4cc5cc(C(F)(F)P(=O)(O)O)ccc5s4)C(=O)N32)C[C@H]1c1cccc(OCCCCOc2ccc(C3CCC(=O)NC3=O)cc2)c1` (mixture of isomers) [Compound 3, trans-((2-(((3S,6S,10aS)-3-(3-cyano-4-(3-(4-(4-(2,6-dioxopiperidin-3-yl)phenoxy)butoxy)phenyl)pyrrolidine-1-carbonyl)-5-oxodecahydropyrrolo[1,2-a]azocin-6-yl)carbamoyl)benzo[b]thiophen-5-yl)difluoromethyl)phosphonic acid], the 50% inhibitory concentration (IC50) is 1000 to 3000 nM in test [1], under 300 nM in test [2] and 100 to 1000 nM in test [3].
